Results from patent publication US5571822A, “Antitumor compounds” (The University of North Carolina at Chapel Hill, priority 1994, dated 1996).
“Also recorded” adds a separate entry of the source. Read-outs that look alike come from different tables or passages of the source.

Assays:
SF-295 = experiment: NCI in vitro tumor cell screen, SF-295 CNS tumor; format: cell-based; details: Homo sapiens, SF-295; read-out: logGI50 (converted)
Method: (§1) Selected 2-phenyl-4-quinolones were assayed using an in vitro, disease-oriented antitumor screen run by the National Cancer Institute (NCI) (e.g., Boyd 1989). The screen involved approximately 60 different cell lines and is a useful indicator of in vivo antitumor activity for a broad variety of tumor types (Grever et al., 1992; Monks et al., 1991). The cell lines tested included cells derived from the following solid tumor types: leukemia, non-small cell lung, colon, the central nervous system (CNS), melanoma, ovarian, renal, prostate, and breast cancers.
(§2) melonoma; SF268 and SF295, CNS tumor cell lines; DU145, prostate cancer

OVCAR-4 = experiment: NCI in vitro tumor cell screen, OVCAR-4 ovarian cancer; format: cell-based; details: Homo sapiens
Method: as §1

tubulin [1] = experiment: inhibition of tubulin polymerization (ITP); format: biochemical, bovine
Method: Electrophoretically homogeneous bovine brain tubulin was purified as described previously (Hamel, et al., 1984). […] Dihydrocombretastatin A-4 was prepared as described previously (Getahun et al., 1992).
The tubulin polymerization assay was performed as described previously (Li et al., 1994). In brief, tubulin at 1.2 mg/mL ([…]) was preincubated for 15 min at 26° C. in a 0.24 mL volume in 0.8M monosodium glutamate (pH 6.6 with NaOH in a 2M stock solution) with varying drug concentrations. The drug stock solutions were in dimethyl sulfoxide, and the final solvent concentration was 4% (v/v). […] All concentrations are in terms of the final reaction volume (0.25 mL). The reaction mixtures were chilled on ice, and […] of 10 mM GTP was added to each reaction mixture. Samples were transferred to cuvettes held at 0° C. by an electronic temperature controller in Gilford spectrophotometers. Baselines were established at 350 nm, and polymerization initiated by a temperature jump to 26° C. The jump took about 50 sec to complete. After 20 min, turbidity readings were recorded, and the temperature controller was set to 0° C. When depolymerization was complete, turbidity readings were again recorded. […] IC50 values were obtained graphically from inhibition of polymerization by different drug concentrations. Four spectrophotometers were used for each experimental sequence, with at least two control reactions (no drug) in each set.

DU-145 = experiment: NCI in vitro tumor cell screen, DU-145 prostate cancer; format: cell-based; details: Homo sapiens
Method: as §1, §2

NCI-H226 = experiment: NCI in vitro tumor cell screen, NCI-H226 non-small cell lung cancer; format: cell-based; details: Homo sapiens
Method: as §1

HCT116 = experiment: NCI in vitro tumor cell screen, HCT116 colon cancer; format: cell-based; details: Homo sapiens, HCT-116
Method: as §1

[2] = system: approximately 60 different cell lines; experiment: NCI in vitro disease-oriented human tumor cell screen, all cell lines; format: cell-based; details: for GI50: Homo sapiens
Text: The cell lines tested included cells derived from the following solid tumor types: leukemia, non-small cell lung, colon, the central nervous system (CNS), melanoma, ovarian, renal, prostate, and breast cancers.

KM202L = experiment: NCI in vitro tumor cell screen, KM20L2 colon cancer; format: cell-based; details: Homo sapiens, KM-20L2
Method: as §1

RXF-393 = experiment: NCI in vitro tumor cell screen, RXF-393 renal cancer; format: cell-based; details: Homo sapiens
Method: as §1

K-562 = experiment: NCI in vitro tumor cell screen, K-562 leukemia; format: cell-based; details: Homo sapiens, K562
Method: as §1

tubulin [3] = experiment: inhibition of radiolabeled colchicine binding to tubulin (ICB); set-up: species or system bovine; details: evaluated only when polymerization IC50 ≤ 1.0 μM; inhibitor equimolar with [3H]colchicine, 5-fold molar excess over tubulin
Method: Studies conducted in support of the present invention indicate that one mode of action of the 2-phenyl-4-quinolone compounds, as antitumor agents, is an ability to bind to tubulin and inhibit cell mitosis. […] […].
[…]. […] […].
Electrophoretically homogeneous bovine brain tubulin was purified as described previously (Hamel, et al., 1984). Combretastatin A-4 was a generous gift of Dr. G. R. Pettit, Arizona State University. Dihydrocombretastatin A-4 was prepared as described previously (Getahun et al., 1992). […]

MDA-N = experiment: NCI in vitro tumor cell screen, MDA-N breast cancer; format: cell-based; details: Homo sapiens
Method: as §1

OVCAR-3 = experiment: NCI in vitro tumor cell screen, OVCAR-3 ovarian cancer; format: cell-based; details: Homo sapiens
Method: as §1

SK-Mel-5 = experiment: NCI in vitro tumor cell screen, SK-Mel-5 melanoma; format: cell-based; details: Homo sapiens
Method: as §1, §2

SF-268 = experiment: NCI in vitro tumor cell screen, SF-268 CNS tumor; format: cell-based; details: Homo sapiens
Method: as §1, §2

protein-linked DNA = experiment: breaks in protein-linked DNA; details: compared with VP-16
[4] = ± SD, tubulin 1.2 mg/mL, 26° C., 20 min, read-out: ITP IC50 (inhibition of tubulin polymerization)
[5] = calculated from all cell lines tested (Table II), read-out: average logGI50 (converted)
[6] = SF-268, CNS tumor, read-out: logGI50 (converted)
[7] = average over cell lines, read-out: average log GI50 (converted)

Row | IC50 (tubulin [1]; [4]) | ICB (% inhibition of colchicine binding) (tubulin [3]) | SMILES | GI50 (SF-295) | GI50 (OVCAR-4) | GI50 (DU-145) | GI50 (NCI-H226) | GI50 (HCT116) | GI50 [2, 5] | GI50 (KM202L) | GI50 (RXF-393) | GI50 (K-562) | GI50 (MDA-N) | GI50 (OVCAR-3) | GI50 (SK-Mel-5) | GI50 (SF-268; [6]) | GI50 [2, 7] | breaks in protein-linked DNA (protein-linked DNA) | further results
1 | 0.0005 ± 0.0001 mM | 40 ± 5% | O=c1cc(-c2cccc(OC(F)(F)F)c2)[nH]c2cc3c(cc12)OCO3 [compound 17, 3'-Trifluoromethoxy-6,7-methylenedioxy-2-phenyl-4-quinolone] | 25.7 nM | 25.7 nM | 45.7 nM | 195 nM | 14.1 nM | 417 nM | 36.3 nM | 40.7 nM | 36.3 nM | < 10 nM | 63.1 nM | 170 nM | – | – | – | –
2 | 0.00047 ± 0.0001 mM | 40 ± 2% | CCOc1cccc(-c2cc(=O)c3cc4c(cc3[nH]2)OCO4)c1 [compound 18, 3'-Ethoxy-6,7-methylenedioxy-2-phenyl-4-quinolone] | 64.6 nM | – | 251 nM | 324 nM | 174 nM | 224 nM | 182 nM | 275 nM | 44.7 nM | 17.8 nM | 166 nM | 191 nM | 269 nM | 224 nM | – | –
3 | 0.00045 ± 3e-05 mM | 26 ± 5% | O=c1cc(-c2cccc(OCc3ccccc3)c2)[nH]c2cc3c(cc12)OCO3 [compound 19, 3'-Benzyloxy-6,7-methylenedioxy-2-phenyl-4-quinolone] | 447 nM | > 100000 nM | 1100 nM | 229 nM | 389 nM | 676 nM | 224 nM | 407 nM | 363 nM | 145 nM | 245 nM | 282 nM | 12900 nM | – | – | –
4 | 0.0007 ± 0.0002 mM | 16 ± 5% | COc1cccc(-c2cc(O)c3cc(Cl)ccc3n2)c1 [compound 24, 3'-Methoxy-6-chloro-2-phenyl-4-quinolone] | – | – | – | – | – | – | – | – | – | – | – | – | – | – | no detectable breaks in protein-linked DNA | –
5 | 0.0023 ± 0.0007 mM | – | CC(=O)Nc1ccc2nc(-c3cccc(Cl)c3)cc(O)c2c1 [compound 26, 3'-Chloro-6-acetamido-2-phenyl-4-quinolone] | – | > 100000 nM | – | – | – | 10500 nM | – | – | – | – | – | – | – | – | no detectable breaks in protein-linked DNA | –
6 | – | – | COc1cccc(-c2cc(O)c3cc(N4CCCC4)ccc3n2)c1 [compound 28, 3'-Methoxy-6-pyrrolinyl-2-phenyl-4-quinolone] | < 1 nM | 2000 nM | < 1 nM | < 1 nM | < 1 nM | 1.86 nM | < 1 nM | < 1 nM | < 1 nM | < 1 nM | < 1 nM | < 1 nM | < 1 nM | ≤ 1.86 nM | – | antitumor activity / cytotoxicity, in words [2]: most potent activity of all; also recorded: exceeded the sensitivity of the testing protocol for many of the cell lines tested

Row | SMILES | IC50 (tubulin [1]; [4]) | ICB (% inhibition of colchicine binding) (tubulin [3]) | GI50 (SF-295) | GI50 (OVCAR-4) | GI50 (DU-145) | GI50 (NCI-H226) | GI50 (HCT116) | GI50 [2, 5] | GI50 (KM202L) | GI50 (RXF-393) | GI50 (K-562) | GI50 (MDA-N) | GI50 (OVCAR-3) | GI50 (SK-Mel-5) | GI50 (SF-268; [6]) | GI50 [2, 7] | breaks in protein-linked DNA (protein-linked DNA) | further results
7 | COc1cccc(-c2cc(O)c3cc(N(C)C)ccc3n2)c1 [compound 23, 3'-Methoxy-6-N,N-dimethylamino-2-phenyl-4-quinolone] | 0.00038 ± 0.0001 mM | 14 ± 8% | 15.5 nM | 5500 nM | 34.7 nM | 44.7 nM | – | 30.2 nM | 4.57 nM | 18.6 nM | 8.91 nM | 1.7 nM | 15.1 nM | 25.7 nM | 43.7 nM | 31.6 nM | – | IC50 (tubulin [1]; values given in mM, read-out: IC50, inhibition of tubulin polymerization): 0.00038 mM; antitumor activity / cytotoxicity, in words [2]: in every case lower than those observed for compounds 10-22, 25-27, and 32; difference in average log GI50 versus compounds 10-22, 25-27, and 32 [2]: at least 0.9 log units
8 | COc1cccc(-c2cc(O)c3cc(NC(C)=O)ccc3n2)c1 [compound 27, 3'-Methoxy-6-acetamido-2-phenyl-4-quinolone] | 0.0021 ± 0.0005 mM | – | – | – | – | – | – | 20000 nM | – | – | – | – | – | – | – | – | no detectable breaks in protein-linked DNA | GI50 (SF-268; SF-268, read-out: logGI50 (converted)): 5500 nM
